These results are taken from patent US7534818B1 (priority 2003, dated 2009).

SMILES strings stand for the structures.

The subject of one data set is rat bladder. The following applies: MSC 0.75 mg/rat/d orally; for bladder histology (hemorrhage): 24 hrs after cyclophosphamide 150 mg/kg×1 i.v., first dose 14 days before, hematoxylin-eosin sections, FIG. 2. The source says:
Bladders were removed and fixed in formalin. Paraffin embedded sections were obtained and stained by hematoxylin-eosin staining by standard methods.

In data set [1] the test system is human squamous cell carcinoma of head and neck tumor xenografts (A253). The data set is described as follows: Anti-tumor activity in A253 xenografts. The data set is classed as in vivo. Particulars: A253 xenografts in nude mice; cyclophosphamide 100 mg/kg×1, i.v., alone or in combination with MSC.
A further data set deals with rats. Particulars: days 30 and 45 after cyclophosphamide 100 mg/kg i.v.×1; MSC 0.75 mg/rat/d×21, first dose 14 days before; FIG. 4.
For the next data set, the system named is normal rats. The data set is described as follows: Identification of non-toxic doses of MSC (survival, weight loss) in normal rats. The data set is classed as in vivo, adult Fisher rats. Particulars: for animals surviving treatment: 21 days. The method, then: This example describes the identification of non-toxic doses for the use of selenium. To illustrate this embodiment, different groups of adult Fisher rats were administered various doses of selenium for 21 days and survival of rats was monitored. Each group had 6 rats and each exempt group was repeated 3-4 times. […] Thus, for evaluation of the protective effect of MSC against chemotherapy induced toxicity, the dose and schedule of MSC used was 0.75 mg/rat/d up to 21 days orally.
Bladders were removed and fixed in formalin.

Where [2] appears, read: up to 0.75 mg/rat/d×21 MSC, adult Fisher rats.

Take `O=P1(N(CCCl)CCCl)NCCCO1` (centres unmarked) [cyclophosphamide]: the bladder mucosal edema result with rat bladder (4 hrs after cyclophosphamide 150 mg/kg×1 i.v., FIG. 3) is on record as “acute mucosal edema”. Besides, in the data set with rat bladder, the “bladder histology (hemorrhage)” value is recorded as “severe hemorrhagic cystitis”. For the same molecule, in data set [1], the Tumor growth inhibition was determined as 35%. The “regrowth of hair (alopecia)” value with rats is “only partial recovery”.

With `C[Se]C[C@H](N)C(=O)O` [MSC, 5-methylselenocysteine], the “bladder histology (hemorrhage)” value with rat bladder is “no change”. In the data set on normal rats (0.75 mg/rat/d MSC orally up to 21 days, Fisher rats 120-180 g, stated as less than 10% of total body weight), this molecule returned a weight loss of 7.4±2.4. The same molecule yielded an animals surviving treatment in the data set on normal rats (1 mg MSC dose, adult Fisher rats) of 75%. The molecule also displayed an animals surviving treatment in the data set on normal rats (1.25 mg MSC dose, adult Fisher rats) of 0%. In the data set on normal rats (setting [2]), the lethality entry is “no lethality”, the toxicity entry is “not toxic” and the weight loss result is “less than 5%”.
